From US6770596B1, “Fused tricyclic compounds, process for their preparation, and herbicidal compositions containing them” (Ishihara Sangyo Kaisha Ltd., priority 2002, dated 2004)

Experiments:
Format in all cases: in vivo
[1] = system: ivyleaf morningglory (Ipomoea hederacea, IPH); experiment: Pre-emerge test, ivyleaf morningglory; details: 250 g ai/ha, 14 days after application, rating scale 0-100 (0 no damage, 100 complete death)
Text: (§1) A standard greenhouse herbicide activity screening system was used to evaluate the herbicidal efficacy and crop safety of these test compounds. Seven broadleaf weed species including redroot pigweed (Amaranthus retroflexus, AMR), velvetleaf (Abutilon theophrasti, ABT), sicklepod (Cassia obtusifolia, CAO), ivyleaf morningglory (Ipomoea hederacea, IPH), lambsquarters (Chenopodium album, CHA), common ragweed (Ambrosia artemisiifolia L., AML), and cocklebur (Xanthium strumariunt, XAS) were used as test species. Four grass weed species including green foxtail (Setaria viridis, SEV), barnyardgrass (Echinachloa crus-galli, ECC), johnsongrass (Sorghum halepense, SOH), and large crabgrass (Digitaria sanguinalis, DIS) were also used. In addition, four crop species, field corn (Zea mays L., var. Dekalb 535, CORN), soybean (Glycine max L., var. Pella 86, SOY), upland rice (Oryza sp., var.Tebonnet, RICE), and wheat (Triticum aestivum) were included all plants were grown in 10 cm square plastic pots which were filled with a sandy loam soil mix.
(§2) For pre-emerge tests, seeds were planted one day prior to application of the test compounds. All test compounds were dissolved in acetone and applied to the test pots in a volume of 187 l/ha. Test materials were applied at rates ranging from 8 g ai/ha to 1000 g ai/ha using a track sprayer equipped with a TJ8001E even flow flat fan spray nozzle. This application simulates a typical commercial field herbicide application.
(§3) At 14 days after application of the test materials, phytotoxicity ratings were recorded. A rating scale of 0-100 was used for both pre and post emerge tests as previously described in Research Methods in Weed Science, 2nd edition, B, Truelove, Ed., Southern Weed Science Society, Auburn University, Auburn, Ala., 1977. Briefly, “0” corresponds to no damage and “100” corresponds to complete death of all plants in the test unit. This scale was used both to determine efficacy against weed species and damage to crop species. Herbicide activity data for various compounds of this invention, which are shown by compound No. in Tables 1-3, are shown in Tables 5 and 6.

[2] = system: green foxtail (Setaria viridis, SEV); experiment: Post-emerge test, green foxtail; details: 250 g ai/ha, 14 days after application, rating scale 0-100 (0 no damage, 100 complete death)
Text: as §1, §2
(§4) For post-emerge tests, seeds were planted 8-21 days prior to the test to allow emergence and good foliage development prior to application of the test substances. At the time of the post-emerge application, plants of all species were usually at the 2-3 leaf stage of development. In the postemerge test, a commercial non-ionic surfactant was also included (0.25% v/v) to enhance wetting of the leaf surfaces of target plants.
as §3

[3] = system: velvetleaf (Abutilon theophrasti, ABT); experiment: Pre-emerge test, velvetleaf; details: 250 g ai/ha, 14 days after application, rating scale 0-100 (0 no damage, 100 complete death)
Text: as §1, §2, §3

[4] = system: wheat (Triticum aestivum); experiment: Pre-emerge test, crop damage wheat; details: pre-emerge, 250 g ai/ha, 14 days after application, rating scale 0-100 (0 no damage, 100 complete death)
Text: as §1, §2, §3

[5] = system: barnyardgrass (Echinachloa crus-galli, ECC); experiment: Post-emerge test, barnyardgrass; details: 250 g ai/ha, 14 days after application, rating scale 0-100 (0 no damage, 100 complete death)
Text: as §1, §2, §4, §3

[6] = system: barnyardgrass (Echinachloa crus-galli, ECC); experiment: Pre-emerge test, barnyardgrass; details: 250 g ai/ha, 14 days after application, rating scale 0-100 (0 no damage, 100 complete death)
Text: as §1, §2, §3

[7] = system: cocklebur (Xanthium strumariunt, XAS); experiment: Pre-emerge test, cocklebur; details: 250 g ai/ha, 14 days after application, rating scale 0-100 (0 no damage, 100 complete death)
Text: as §1, §2, §3

[8] = system: large crabgrass (Digitaria sanguinalis, DIS); experiment: Post-emerge test, large crabgrass; details: 250 g ai/ha, 14 days after application, rating scale 0-100 (0 no damage, 100 complete death)
Text: as §1, §2, §4, §3

[9] = system: sicklepod (Cassia obtusifolia, CAO); experiment: Post-emerge test, sicklepod; details: 250 g ai/ha, 14 days after application, rating scale 0-100 (0 no damage, 100 complete death)
Text: as §1, §2, §4, §3

[10] = system: upland rice (Oryza sp., var.Tebonnet, RICE); experiment: Pre-emerge test, crop damage upland rice; details: pre-emerge, 250 g ai/ha, 14 days after application, rating scale 0-100 (0 no damage, 100 complete death)
Text: as §1, §2, §3

[11] = system: field corn (Zea mays L., var. Dekalb 535, CORN); experiment: Pre-emerge test, crop damage field corn; details: pre-emerge, 250 g ai/ha, 14 days after application, rating scale 0-100 (0 no damage, 100 complete death)
Text: as §1, §2, §3

[12] = system: redroot pigweed (Amaranthus retroflexus, AMR); experiment: Pre-emerge test, redroot pigweed; details: 250 g ai/ha, 14 days after application, rating scale 0-100 (0 no damage, 100 complete death)
Text: as §1, §2, §3

[13] = system: upland rice (Oryza sp., var.Tebonnet, RICE); experiment: Post-emerge test, crop damage upland rice; details: post-emerge, 250 g ai/ha, 14 days after application, rating scale 0-100 (0 no damage, 100 complete death)
Text: as §1, §2, §4, §3

[14] = system: common ragweed (Ambrosia artemisiifolia L., AML); experiment: Post-emerge test, common ragweed; details: 250 g ai/ha, 14 days after application, rating scale 0-100 (0 no damage, 100 complete death)
Text: as §1, §2, §4, §3

[15] = system: sicklepod (Cassia obtusifolia, CAO); experiment: Pre-emerge test, sicklepod; details: 250 g ai/ha, 14 days after application, rating scale 0-100 (0 no damage, 100 complete death)
Text: as §1, §2, §3

[16] = system: soybean (Glycine max L., var. Pella 86, SOY); experiment: Pre-emerge test, crop damage soybean; details: pre-emerge, 250 g ai/ha, 14 days after application, rating scale 0-100 (0 no damage, 100 complete death)
Text: as §1, §2, §3

[17] = system: wheat (Triticum aestivum); experiment: Post-emerge test, crop damage wheat; details: post-emerge, 250 g ai/ha, 14 days after application, rating scale 0-100 (0 no damage, 100 complete death)
Text: as §1, §2, §4, §3

[18] = system: johnsongrass (Sorghum halepense, SOH); experiment: Pre-emerge test, johnsongrass; details: 250 g ai/ha, 14 days after application, rating scale 0-100 (0 no damage, 100 complete death)
Text: as §1, §2, §3

[19] = system: lambsquarters (Chenopodium album, CHA); experiment: Pre-emerge test, lambsquarters; details: 250 g ai/ha, 14 days after application, rating scale 0-100 (0 no damage, 100 complete death)
Text: as §1, §2, §3

[20] = system: field corn (Zea mays L., var. Dekalb 535, CORN); experiment: Post-emerge test, crop damage field corn; details: post-emerge, 250 g ai/ha, 14 days after application, rating scale 0-100 (0 no damage, 100 complete death)
Text: as §1, §2, §4, §3

[21] = system: soybean (Glycine max L., var. Pella 86, SOY); experiment: Post-emerge test, crop damage soybean; details: post-emerge, 250 g ai/ha, 14 days after application, rating scale 0-100 (0 no damage, 100 complete death)
Text: as §1, §2, §4, §3

[22] = system: redroot pigweed (Amaranthus retroflexus, AMR); experiment: Post-emerge test, redroot pigweed; details: 250 g ai/ha, 14 days after application, rating scale 0-100 (0 no damage, 100 complete death)
Text: as §1, §2, §4, §3

[23] = system: common ragweed (Ambrosia artemisiifolia L., AML); experiment: Pre-emerge test, common ragweed; details: 250 g ai/ha, 14 days after application, rating scale 0-100 (0 no damage, 100 complete death)
Text: as §1, §2, §3

[24] = system: johnsongrass (Sorghum halepense, SOH); experiment: Post-emerge test, johnsongrass; details: 250 g ai/ha, 14 days after application, rating scale 0-100 (0 no damage, 100 complete death)
Text: as §1, §2, §4, §3

[25] = system: cocklebur (Xanthium strumariunt, XAS); experiment: Post-emerge test, cocklebur; details: 250 g ai/ha, 14 days after application, rating scale 0-100 (0 no damage, 100 complete death)
Text: as §1, §2, §4, §3

[26] = system: velvetleaf (Abutilon theophrasti, ABT); experiment: Post-emerge test, velvetleaf; details: 250 g ai/ha, 14 days after application, rating scale 0-100 (0 no damage, 100 complete death)
Text: as §1, §2, §4, §3

[27] = system: large crabgrass (Digitaria sanguinalis, DIS); experiment: Pre-emerge test, large crabgrass; details: 250 g ai/ha, 14 days after application, rating scale 0-100 (0 no damage, 100 complete death)
Text: as §1, §2, §3

[28] = system: ivyleaf morningglory (Ipomoea hederacea, IPH); experiment: Post-emerge test, ivyleaf morningglory; details: 250 g ai/ha, 14 days after application, rating scale 0-100 (0 no damage, 100 complete death)
Text: as §1, §2, §4, §3

[29] = system: lambsquarters (Chenopodium album, CHA); experiment: Post-emerge test, lambsquarters; details: 250 g ai/ha, 14 days after application, rating scale 0-100 (0 no damage, 100 complete death)
Text: as §1, §2, §4, §3

[30] = system: green foxtail (Setaria viridis, SEV); experiment: Pre-emerge test, green foxtail; details: 250 g ai/ha, 14 days after application, rating scale 0-100 (0 no damage, 100 complete death)
Text: as §1, §2, §3

Row | Structure (SMILES) | Pre-emerge Herbicidal Activity IPH (phytotoxicity rating) [1] | Post-emerge Herbicidal Activity SEV (phytotoxicity rating) [2] | Pre-emerge Herbicidal Activity ABT (phytotoxicity rating) [3] | Pre-emerge crop damage WHEAT (phytotoxicity rating) [4] | Post-emerge Herbicidal Activity ECC (phytotoxicity rating) [5] | Pre-emerge Herbicidal Activity ECC (phytotoxicity rating) [6] | Pre-emerge Herbicidal Activity XAS (phytotoxicity rating) [7] | Post-emerge Herbicidal Activity DIS (phytotoxicity rating) [8] | Post-emerge Herbicidal Activity CAO (phytotoxicity rating) [9] | Pre-emerge crop damage RICE (phytotoxicity rating) [10] | Pre-emerge crop damage CORN (phytotoxicity rating) [11] | Pre-emerge Herbicidal Activity AMR (phytotoxicity rating) [12] | Post-emerge crop damage RICE (phytotoxicity rating) [13] | Post-emerge Herbicidal Activity AML (phytotoxicity rating) [14] | Pre-emerge Herbicidal Activity CAO (phytotoxicity rating) [15] | Pre-emerge crop damage SOY (phytotoxicity rating) [16] | Post-emerge crop damage WHEAT (phytotoxicity rating) [17] | Pre-emerge Herbicidal Activity SOH (phytotoxicity rating) [18] | Pre-emerge Herbicidal Activity CHA (phytotoxicity rating) [19] | Post-emerge crop damage CORN (phytotoxicity rating) [20] | also measured
1 | O=C1Nc2c(-c3ncc(C(F)(F)F)cc3Cl)c(F)cc3c2N(C(=O)CO3)C1c1ccccc1 (stereo not drawn) [1-68] | 40 | 0 | 99 | 30 | 0 | 98 | 30 | 0 | 0 | 0 | 5 | 100 | 0 | 40 | 40 | 5 | 0 | 99 | 100 | 10 | Post-emerge crop damage SOY (phytotoxicity rating) [21]: 10; Post-emerge Herbicidal Activity AMR (phytotoxicity rating) [22]: 100; Pre-emerge Herbicidal Activity AML (phytotoxicity rating) [23]: 65; Post-emerge Herbicidal Activity SOH (phytotoxicity rating) [24]: 0; Post-emerge Herbicidal Activity XAS (phytotoxicity rating) [25]: 60; Post-emerge Herbicidal Activity ABT (phytotoxicity rating) [26]: 80; Pre-emerge Herbicidal Activity DIS (phytotoxicity rating) [27]: 100; Post-emerge Herbicidal Activity IPH (phytotoxicity rating) [28]: 60; Post-emerge Herbicidal Activity CHA (phytotoxicity rating) [29]: 100; Pre-emerge Herbicidal Activity SEV (phytotoxicity rating) [30]: 100
2 | O=C1CN2C(=O)COc3cc(F)c(N4C(=O)C5=C(CCCC5)C4=O)c(c32)N1 [1-37, 9-Flouro-8-(4,5,6,7-tetrahydro-2H-isoindole-1,3-dione-2-yl)-5H-pyrazino[1,2,3de]-1,4-benzoxazine-3,6(2H, 7H)-dione] | 85 | 75 | 60 | 20 | 60 | 15 | 35 | 0 | 15 | 20 | 15 | 100 | 80 | 70 | 40 | 10 | 10 | 25 | 100 | 35 | Post-emerge crop damage SOY (phytotoxicity rating) [21]: 55; Post-emerge Herbicidal Activity AMR (phytotoxicity rating) [22]: 100; Pre-emerge Herbicidal Activity AML (phytotoxicity rating) [23]: 98; Post-emerge Herbicidal Activity SOH (phytotoxicity rating) [24]: 50; Post-emerge Herbicidal Activity XAS (phytotoxicity rating) [25]: 95; Post-emerge Herbicidal Activity ABT (phytotoxicity rating) [26]: 100; Pre-emerge Herbicidal Activity DIS (phytotoxicity rating) [27]: 40; Post-emerge Herbicidal Activity IPH (phytotoxicity rating) [28]: 100; Post-emerge Herbicidal Activity CHA (phytotoxicity rating) [29]: 85; Pre-emerge Herbicidal Activity SEV (phytotoxicity rating) [30]: 0
3 | CC1C(=O)Nc2c(-c3nn(C)c(OC(F)F)c3Cl)c(F)cc3c2N1C(=O)C(C)(C)O3 (stereo not drawn) [1-60] | 100 | 95 | 100 | 50 | 98 | 100 | 85 | 0 | 60 | 70 | 80 | 100 | 0 | 70 | 98 | 40 | 30 | 100 | 100 | 5 | Post-emerge crop damage SOY (phytotoxicity rating) [21]: 50; Post-emerge Herbicidal Activity AMR (phytotoxicity rating) [22]: 85; Pre-emerge Herbicidal Activity AML (phytotoxicity rating) [23]: 80; Post-emerge Herbicidal Activity SOH (phytotoxicity rating) [24]: 0; Post-emerge Herbicidal Activity XAS (phytotoxicity rating) [25]: 85; Post-emerge Herbicidal Activity ABT (phytotoxicity rating) [26]: 100; Pre-emerge Herbicidal Activity DIS (phytotoxicity rating) [27]: 100; Post-emerge Herbicidal Activity IPH (phytotoxicity rating) [28]: 100; Post-emerge Herbicidal Activity CHA (phytotoxicity rating) [29]: 100; Pre-emerge Herbicidal Activity SEV (phytotoxicity rating) [30]: 100
